From patent US20020120242A1, “Absorbent articles with hydrophilic compositions containing botanicals” (priority 2000, published 2002)
Where “and” joins values, the source holds several entries; their conditions need not be identical. Identical values can stand only once. Like-named read-outs stand apart in the source and are kept apart here. Marks after values point to notes of the source that are not given here.

Experiments:
interleukin-1 alpha [1] = test: EPIDERM skin culture irritation test, fecal protease (trypsin-chymotrypsin) insult, IL-1 alpha release; format: cell-based, human
Experimental: In order to evaluate the efficacy of the compositions of the invention, a human skin culture was selected to model the response of the human epidermis. EPIDERM skin culture is a cornified, air-interfaced human skin culture. EPIDERM skin culture has multiple layers of progressively differentiated keratinocytes resembling human epidermis. EPIDERM EPI-200 skin culture can be purchased from MatTek Corporation of Ashland, Mass. Experiments using EPIDERM skin culture are conducted in six well plates. Typically, five EPIDERM skin culture inserts are added to five of the six wells. Each well contains one milliliter of pre-warmed media that is the same as the EPIDERM skin culture media. The plates are then incubated in a 37° C., 5% CO2 incubator for thirty minutes. After incubation, 15 microliters of test composition or control are applied to the surface of the EPIDERM skin culture after removing any residual media. The well plates, with the test compositions/control applied, are incubated in the 37° C., 5% CO2 incubator for thirty minutes after which the underlying media is removed and replaced with fresh, pre-warmed media. Next, ten microliters of insult solution, either fecal protease or bile acid, are applied to the surface of the EPIDERM skin culture.
The insult solution is prepared by diluting a 10 mg/ml stock solution in phosphate-buffered saline to a working concentration of 250 µg/ml. The base of the stock solution is 50 mM NaOAcetate, pH 5.5 and 0.15 M NaCl stored at −80° C. […] The bile acid insult solution can be prepared by dissolving 65 mg of cholic acid, 62 mg of deoxycholic acid and 31 mg of chenodeoxycholic acid in 10 ml of phosphate-buffered saline. The bile acid insult components can be purchased from Sigma Chemical Co. of St. Louis, Mo. Phosphate-buffered saline, pH 7.4 (hereinafter “PBS”) can be purchased from Life Technologies of Rockville, Md.
For internal studies, infant feces were collected and the amount of total protease and trypsin activities determined for each of the fecal extracts. To prepare the extract, the feces were suspended in water and vigorously vortexed. After vortexing, the samples were held on ice prior to centrifugation at 15,000 times the force of gravity for 20 minutes. The supernatant was filtered through 0.22 micron cellulose acetate filters and stored at −80° C. until use.
After application of the insult solution, the well plates are incubated for six hours in the 37° C., 5% CO2 incubator. At the end of six hours, the well plates are removed from the incubator, the underlying media is removed and stored at −80° C. The response of the EPIDERM skin culture to the test compositions/control and the insult solution is determined by measuring the amount of interleukin-1 alpha (hereinafter “IL-1”). Interleukin-1 alpha can be quantified using an Interleukin-1 alpha Quantikine Kit available from R&D Systems of Minneapolis, Minn. Interleukin-1 alpha measurements are converted to Log10 for each of the treatments and the averages for each treatment are calculated. In order to determine the ability of the test compositions to reduce skin irritation caused by the biological insults, the percent mean reduction of IL-1 is calculated as follows: [formula]
EPIDERM skin culture studies were conducted to measure the reduction in IL-1 response between compositions of the invention and a fecal protease-induced irritation. The studies were conducted using botanicals that are representative of the invention.

[2] = target: T1, porcine pancreatic trypsin (Sus scrofa, UniProt P00761); test: Trypsin inhibition in solution with BAPNA chromogenic substrate; format: biochemical; details: for Trypsin Inhibition (IC50): solid form dissolved in PBS
T1 construct: purchased Sigma Chemical of St. Louis, Mo; host or cells: pancreas (porcine)
Experimental: More specifically, compositions of the invention were evaluated for their inhibitory effect on porcine pancreatic trypsin in solution. Porcine pancreatic trypsin from Sigma Chemical of St. Louis, Mo. was prepared at a concentration of 1600 ng/ml in 100 mM Tris-HCL pH 8.0-buffer. Twenty-five microliters of the porcine pancreatic trypsin was added to the wells of a NUNC IMMUNO clear 96 well plate. The wells also contained 150 µl of 100 mM Tris-HCL pH 8.0 buffer and 25 µl of a test composition diluted as necessary in PBS. After a fifteen minute incubation at room temperature, the reaction is initiated by adding 50 µl of a 5 mM solution of chromogenic trypsin substrate (N-benzyl-arginine-p-nitroanalide (BAPNA)) to each of the wells. The BAPNA is prepared at 50 mM in neat dimethylsulfoxide and diluted in water to a 5mM working stock solution. In order to measure the progress of the reactions, optical density measurements were taken at 405 nm every 20 seconds (after a two minute delay) for 10 minutes with a THERMOMAX Microplate Reader (Molecular Devices, Sunnyvale, Calif.). […] Below. The IC50 value is based on a dilution of the liquid stock botanical. The actual concentration of the botanical/salt compositions is not known except for those compositions available in solid form. For the solid forms, stock concentrations in PBS can be accurately made up.

EPIDERM skin culture [3] = details: human, 4 mg/ml
Excerpt: (§1) The MTT dye is taken up by the cells. The reduction of the dye as a result of cellular metabolism can be used to measure the cytotoxicity of the test compositions. In order to confirm viability, inserts of the EPIDERM skin culture that have already been subjected to the test compositions and biological insults are removed from their media and are washed consecutively through immersion in three different beakers of PBS. Fresh PBS is used for each test composition or control being evaluated. The PBS is discarded onto paper towel. The EPIDERM skin culture inserts are then patted onto paper towel and placed into the wells of a 24 well plate containing 300 microliters of pre-warmed media. After all of the EPIDERM skin culture inserts are washed, they are transferred to new 24 well plates containing 300 microliters of the MTT reagent. The MTT reagent is thiazolyl blue having the formula 3-[4,5-Dimethylthiazol-2-yl]-2,5-diphenyltetrzoliumbromide. The plates are incubated for 2 hours in a 37° C., 5% CO2 incubator. After incubation, the EPIDERM skin culture inserts are transferred to 24 well plates and are immersed in 2 milliliters of MTT extraction buffer. The extraction buffer extracts the MTT reagent from the cells. The 24 well plates are parafilmed, covered and placed in ZIPLOCK bags to reduce evaporation of the extraction buffer. The covered plates are rocked overnight in the dark. Following overnight rocking, the liquid in the EPIDERM skin culture inserts is decanted back into the wells. The contents of each well are mixed and a 200 microliter aliquot is then removed from each well and transferred to a 96 well plate. The optical density (OD) of the samples is measured at 570 nm using a spectrophotometer. Five hundred seventy nanometers is the optimal wavelength at which to measure the reduced form of MTT reagent. This reading is subtracted from a background reading at 650 nm to improve data quality. Percent viability of each test composition+insult relative to the control+PBS is recorded as the Mean ODtest composition+insult divided by the Mean ODcontrol+PBS; the quotient then multiplied by 100.

interleukin-1 alpha [4] = test: EPIDERM skin culture irritation test, protease and bile acid insult, IL-1 alpha release; format: cell-based, human; details: 4 mg/ml in water, 30 minutes pretreatment; protease and bile acid insult 6 hours; sample size six
Experimental: An additional set of EPIDERM skin culture experiments was conducted to predict the effect of extracted botanical actives on the irritation response to a protease and bile acid insult. The method for utilizing the EPIDERM skin culture described above was also used for this set of experiments evaluating response to a protease and bile acid insult. The EPIDERM skin culture was pretreated with 15 l of test composition containing 4 mg/ml of epigallocatecin gallate in water for a period of 30 minutes in a 37° C./5% CO2 incubator. The skin culture wells were then treated with 10 µl of a protease and bile acid insult for 6 hours under the same incubation conditions. Phosphate-buffered saline solution of pH 7.4 was used as a negative control. After 6 hours, the underlying media is removed and stored at -80° C. The amount of IL-1 from the media was quantified using an Interleukin-1 alpha Quantikine Kit available from R&D Systems of Minneapolis, Minn. The protease and bile acid insult was prepared by mixing equal volumes of a bile acid insult with a protease insult. The bile acid insult included 13 mg/ml cholic acid (sodium salt), 12.4 mg/ml deoxycholic acid (sodium salt) and 6.2 mg/ml chenodeoxycholic acid (sodium salt) prepared in pH 7.4 phosphate-buffered saline. […]

EPIDERM skin culture [5] = test: MTT viability assay on EPIDERM skin culture after test composition + insult
Excerpt: as §1

[6] = 4 mg/ml in PBS, trypsin-chymotrypsin insult (Table 3)

T1 sequence (P00761 9-231): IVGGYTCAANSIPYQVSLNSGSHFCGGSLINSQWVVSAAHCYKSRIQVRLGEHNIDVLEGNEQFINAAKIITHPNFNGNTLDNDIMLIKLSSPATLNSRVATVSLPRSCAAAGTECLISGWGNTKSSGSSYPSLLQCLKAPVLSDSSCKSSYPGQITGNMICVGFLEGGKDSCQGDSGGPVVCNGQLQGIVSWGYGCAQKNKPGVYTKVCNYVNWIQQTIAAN

Row | SMILES | Trypsin Inhibition (IC50) [2] | Mean Reduction of Interleukin-1 Alpha (percentage) (interleukin-1 alpha [1]; [6]) | Viability (percentage) (EPIDERM skin culture [5]; [6]) [%] | further results
1 | [Cl-].[Cl-].[Sr+2] [Strontium Chloride] | >0.5% (w/v) |  |  | Mean Reduction of Interleukin-1 Alpha (percentage) (interleukin-1 alpha [1]; 1% in PBS, fecal protease insult 6 hours, one value per set of experiments): 0% (10); Mean Reduction of Interleukin-1 Alpha (percentage) (interleukin-1 alpha [1]; 10% in PBS, fecal protease insult 6 hours, one value per set of experiments): 15% (10)
2 | Oc1cc(O)c2c(c1)O[C@H](c1cc(O)c(O)c(O)c1)[C@H](O)C2 [Epigallocatechin] |  | 30% (5) |  | Viability (percentage) (EPIDERM skin culture [3]): 125%
3 | O=C(O[C@@H]1Cc2c(O)cc(O)cc2O[C@@H]1c1cc(O)c(O)c(O)c1)c1cc(O)c(O)c(O)c1 [Epigallocatechin gallate] | 0.00002% (w/v) |  | 126 | Mean Reduction of Interleukin-1 Alpha (percentage) (interleukin-1 alpha [1]; 0.4% (w/v) in PBS, fecal protease insult 6 hours, one value per set of experiments): 77% and 71% and 50%; IL-1 reduction (interleukin-1 alpha [4]): 28%; reduction of trypsin activity in solution (in words) ([2]; conclusion from Table 5): effective at reducing trypsin activity in solution; Viability (percentage) (EPIDERM skin culture [5]; 0.4% (w/v) in PBS + protease insult, relative to control + PBS): 103% and 101% and 112%
4 | O=C(O[C@@H]1Cc2c(O)cc(O)cc2O[C@@H]1c1ccc(O)c(O)c1)c1cc(O)c(O)c(O)c1 [Epicatechin gallate] |  | 62% (5)* | 143 | 
5 | Oc1cc(O)c2c(c1)O[C@H](c1ccc(O)c(O)c1)[C@H](O)C2 [Epicatechin] |  | 24% (5) | 111 | 
